Consider five compounds from paper PMC10820070, “Hydroxylated Tetramethoxyflavone Affects Intestinal Cell Permeability and Inhibits Cytochrome P450 Enzymes” (Molecules, 2024).

Structures are written as SMILES. “And” between values parts separate entries of the source, which are not always exact repeats. Equal values may be shown once. Marks after values point to notes of the source that are not given here.

For one data set, the target named is T1, CYP2C19 (Homo sapiens, UniProt P33261).
T1 construct: purchased Invitrogen Corp. (Madison, WI, USA); host or cells: insect cells (baculovirus)
T1 sequence (P33261 whole entry): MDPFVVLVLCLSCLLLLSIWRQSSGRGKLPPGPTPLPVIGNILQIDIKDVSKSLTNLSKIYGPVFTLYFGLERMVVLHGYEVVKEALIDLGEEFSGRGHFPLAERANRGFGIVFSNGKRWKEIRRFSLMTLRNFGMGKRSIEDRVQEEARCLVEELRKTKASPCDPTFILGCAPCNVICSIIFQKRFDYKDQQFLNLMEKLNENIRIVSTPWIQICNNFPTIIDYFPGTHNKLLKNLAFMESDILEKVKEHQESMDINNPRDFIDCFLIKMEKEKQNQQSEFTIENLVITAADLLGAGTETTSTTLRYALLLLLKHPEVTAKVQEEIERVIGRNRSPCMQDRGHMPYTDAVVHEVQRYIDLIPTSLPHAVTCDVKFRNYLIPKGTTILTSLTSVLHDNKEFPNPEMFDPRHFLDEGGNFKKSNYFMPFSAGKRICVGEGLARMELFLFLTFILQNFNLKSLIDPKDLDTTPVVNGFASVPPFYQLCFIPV
Put plainly: CYP inhibition assay (P450 Baculosomes/Vivid substrate, fluorescence), 10-dose IC50. Format: biochemical. Particulars: mean ± S.D.; ND: Not Detected.

Another data set concerns the target CYP3A4 (Homo sapiens, UniProt P08684). The data set is described as above.
In the next data set the target is T2, CYP2D6 (Homo sapiens, UniProt P10635).
T2 construct: purchased Invitrogen Corp. (Madison, WI, USA); host or cells: insect cells (baculovirus)
T2 sequence (P10635 whole entry): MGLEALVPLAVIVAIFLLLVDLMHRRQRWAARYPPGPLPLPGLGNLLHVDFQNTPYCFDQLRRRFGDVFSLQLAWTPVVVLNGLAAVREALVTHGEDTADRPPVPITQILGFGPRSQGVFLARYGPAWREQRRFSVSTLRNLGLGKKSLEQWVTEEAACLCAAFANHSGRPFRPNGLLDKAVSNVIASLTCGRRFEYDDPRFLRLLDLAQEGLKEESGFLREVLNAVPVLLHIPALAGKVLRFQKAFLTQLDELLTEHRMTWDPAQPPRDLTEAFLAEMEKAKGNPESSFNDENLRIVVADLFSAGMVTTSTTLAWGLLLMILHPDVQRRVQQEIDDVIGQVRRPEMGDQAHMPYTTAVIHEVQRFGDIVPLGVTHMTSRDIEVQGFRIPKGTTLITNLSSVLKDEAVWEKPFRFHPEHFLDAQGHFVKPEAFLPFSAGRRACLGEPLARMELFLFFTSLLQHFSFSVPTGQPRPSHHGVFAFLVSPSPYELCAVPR
The description is as above. Format: biochemical. Particulars: mean ± S.D.; ND: Not Detected.

The next data set concerns the target T3, CYP1A2 (Homo sapiens, UniProt P05177).
T3 sequence (P05177 2-516 limits assumed): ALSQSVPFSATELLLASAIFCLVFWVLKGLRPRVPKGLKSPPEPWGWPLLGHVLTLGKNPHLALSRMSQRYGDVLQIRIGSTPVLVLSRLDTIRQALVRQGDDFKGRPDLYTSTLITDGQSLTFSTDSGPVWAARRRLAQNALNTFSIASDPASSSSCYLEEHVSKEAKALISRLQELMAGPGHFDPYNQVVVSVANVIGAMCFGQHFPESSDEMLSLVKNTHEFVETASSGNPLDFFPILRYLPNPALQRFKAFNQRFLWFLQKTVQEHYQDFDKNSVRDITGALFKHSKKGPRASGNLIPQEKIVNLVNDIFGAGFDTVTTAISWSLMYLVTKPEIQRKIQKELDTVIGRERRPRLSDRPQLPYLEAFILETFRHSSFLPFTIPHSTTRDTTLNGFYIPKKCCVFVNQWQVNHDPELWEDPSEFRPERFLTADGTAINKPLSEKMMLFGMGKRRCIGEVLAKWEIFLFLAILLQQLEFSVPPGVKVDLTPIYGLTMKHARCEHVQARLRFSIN
The description is as above.

A short description of data set [1]: Transport of TMFs across Caco-2 cell monolayer, apical to basolateral. Format: in vitro ADME, human. Particulars: human, Caco-2, calculated over four hours, read-out: apparent permeability coefficient (Papp). Here is the method:
(§1) Caco-2 cells were cultured in Dulbecco’s modified Eagle’s medium (DMEM; GIBCO, Carlsbad, CA, USA) supplemented with 10% fetal bovine serum (GIBCO), 1% nonessential amino acid solution, and antibiotics (100 U/mL penicillin and 100 µg/mL streptomycin from GIBCO) with a minor modification according to Lu. Cells were grown in an incubator with 5% CO2 and 95% humidity at 37 °C, with medium replaced every 2–3 days. The tests were carried out using cells from passages 25–35. Transwell inserts with a polycarbonate membrane (diameter 1.2 cm, pore size 0.4 μm; Corning Costar Co., Corning, NY, USA) were used in 12-well plates. Caco-2 cells were planted at 5 × 10^5 cells/cm^2 on the membrane inserts, and 0.5 and 1.5 mL of culture media were placed on the apical and basolateral sides, respectively. The medium was changed three times a week, and the Caco-2 cells used in the studies had been cultured in the Transwells for approximately 21 days. The integrity of the cell layer was assessed using Millicell ERS equipment by measuring transepithelial electrical resistance (TEER) values (Millipore Co., Bedford, MA, USA). Monolayers with TEER values greater than 400 Ωcm^2 were used for transport and absorption studies.
(§2) Transport experiments were conducted using modified methodologies from the literature. Before adding the test solution, the apical and basolateral sides of the Coco-2 cell monolayer grown in Transwell inserts were washed three times with Hank’s balanced salt solution (GIBCO). The apical-to-basolateral permeability was measured by adding 0.5 mL of the test solution containing 300 μg/mL TMFs and 1.5 mL of HBSS to the apical and basolateral sides, respectively, and incubating at 37 °C for 0.5, 1, 2, and 4 h. The concentration of TMF utilized was determined using the Caco-2 cell viability test findings. TMF was dissolved and diluted with HBSS before the experiment began. The apical and basolateral solutions were collected after incubation for 0.5, 1, 2, and 4 h, and the concentration of TMF was determined using LC-MS. The apparent permeability coefficient (Papp in cm/s) was calculated over a four-hour duration using Equation (1):Papp = (V/AC0) × (dC/dt)(1) where V is the volume of solution on the basolateral side (1.5 mL); A is the membrane surface area (1.12 cm^2); C0 is the initial concentration on the apical side; and dC/dt is the change in concentration in the basolateral side over time.
(§3) The transport efficiency (%) was calculated using Equation (2):Transport efficiency (%) = (Cbs)/(Cas) × 100 (%)(2) where Cbs is the concentration of TMF transported in the basolateral side; and Cas is the initial concentration of TMF added to the apical side.

The test system of a further data set is Caco-2 cell monolayer. Described as above. Format: in vitro ADME, human. The settings on record: 300 μg/mL TMF loaded on apical side, mean ± S.D. Here is the method:
as §1, §2, §3

The target of a further data set is CYP2C9 (Homo sapiens, UniProt P11712). Put plainly: CYP inhibition assay (P450 Baculosomes/Vivid substrate, fluorescence), 10-dose IC50.
Sequence of CYP2C9 (P11712 whole entry): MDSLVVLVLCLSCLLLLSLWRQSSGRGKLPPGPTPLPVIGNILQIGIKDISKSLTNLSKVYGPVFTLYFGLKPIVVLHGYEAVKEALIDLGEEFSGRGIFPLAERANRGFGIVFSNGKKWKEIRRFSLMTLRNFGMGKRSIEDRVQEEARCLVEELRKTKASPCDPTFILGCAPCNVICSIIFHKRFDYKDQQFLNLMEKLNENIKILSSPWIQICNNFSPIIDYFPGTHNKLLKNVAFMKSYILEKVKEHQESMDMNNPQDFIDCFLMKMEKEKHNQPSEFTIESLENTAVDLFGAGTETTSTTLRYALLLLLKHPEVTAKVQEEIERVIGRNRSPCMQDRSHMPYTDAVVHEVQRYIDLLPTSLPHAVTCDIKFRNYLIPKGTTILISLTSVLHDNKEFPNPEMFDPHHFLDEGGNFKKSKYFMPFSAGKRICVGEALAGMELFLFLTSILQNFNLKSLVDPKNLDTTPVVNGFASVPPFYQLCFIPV
Data set [2] relates to cytochrome P450s (CYP) 1A2. On the set-up: method as in PMID 22056445. The settings on record: in vitro; read-out: IC50 against CYP1A2; cited from earlier work.
Data set [3] relates to cytochrome P450s (CYP) 3A4. More on the design: method as in PMID 22056445. Particulars: in vitro; read-out: IC50 against CYP3A4; cited from earlier work.
The test system of data set [4] is CYP1A2, CYP2C9, CYP2C19 (range over the three). Put plainly: CYP inhibition assay, summary over the enzyme panel. Format: biochemical. The settings on record: human, probe Vivid substrates; range over CYP1A2, 2C9 and 2C19; dose-dependent.

Sequence of CYP3A4 (P08684 2-503 limits assumed): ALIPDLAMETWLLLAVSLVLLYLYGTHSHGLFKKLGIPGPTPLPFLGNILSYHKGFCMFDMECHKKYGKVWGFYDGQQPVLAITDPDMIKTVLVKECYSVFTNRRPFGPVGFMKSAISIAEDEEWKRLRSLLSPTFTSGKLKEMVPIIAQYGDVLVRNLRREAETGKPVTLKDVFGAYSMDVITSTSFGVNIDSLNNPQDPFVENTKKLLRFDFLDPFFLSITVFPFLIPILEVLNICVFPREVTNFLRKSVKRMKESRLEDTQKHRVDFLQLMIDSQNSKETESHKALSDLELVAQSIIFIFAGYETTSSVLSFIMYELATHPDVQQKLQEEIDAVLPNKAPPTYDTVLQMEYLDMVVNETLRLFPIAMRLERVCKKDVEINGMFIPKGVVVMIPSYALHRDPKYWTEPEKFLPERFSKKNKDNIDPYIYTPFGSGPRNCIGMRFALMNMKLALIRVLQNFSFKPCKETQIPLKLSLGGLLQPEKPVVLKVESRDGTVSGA

In general, IC50 refers to the concentration that inhibits the measured activity by half. As usually defined, the Papp is a coefficient for how fast a substance crosses the barrier. With `COc1ccc2oc(-c3cc(OC)c(OC)cc3OC)c(O)c(=O)c2c1` [3H6-TMF, 3-hydroxy-2′,4′,5′,6-tetramethoxyflavone], the IC50 at CYP2C19 was 10.2 ± 2.47 µM; against CYP3A4, 0.44 ± 0.12 µM; at CYP2D6, 95.5 ± 3.21 µM; on CYP1A2, 20.6 ± 0.98 µM; against CYP2C9, 8.03 ± 3.75 µM. The Papp at 4 h, 300 μg/mL in [1] was 17.4 ×10⁻⁶ cm/s. Also, the “Transport Efficiency (%)” value in the data set with Caco-2 cell monolayer (1 h) is 25.42 ± 1.92 ^c %; in the data set with Caco-2 cell monolayer (2 h), 33.27 ± 2.59 ^b %; with Caco-2 cell monolayer (4 h) it was 39.43 ± 2.50% and 39% and 39.43 ± 3.50 ^a %.

As for `COc1ccc2c(=O)c(O)c(-c3cc(OC)c(OC)cc3OC)oc2c1` [3H7-TMF, 3-hydroxy-2′,4′,5′,7-tetramethoxyflavone], the IC50 came out at 14.8 ± 3.15 µM against CYP2C19; 0.15 ± 0.07 µM on CYP3A4; 2.28 ± 0.46 µM against CYP2D6; 15.5 ± 1.95 µM on CYP1A2; 18.3 ± 8.93 µM against CYP2C9. In addition, the Papp at 4 h, 300 μg/mL in data set [1] was 19.5 ×10⁻⁶ cm/s. Further, the “Transport Efficiency (%)” value was 37.82 ± 0.07 ^c % in the data set on Caco-2 cell monolayer (1 h); 41.96 ± 1.14 ^b % in the data set with Caco-2 cell monolayer (2 h); 46% and 46.29 ± 2.16 ^a % with Caco-2 cell monolayer (4 h).

As for `COc1cc(-c2cc(=O)c3c(O)c(OC)c(OC)c(OC)c3o2)ccc1O` [8-methoxycirsilineol, 4′,5-dihydroxy-3′,6,7,8-tetramethoxy flavone], the values for the half-maximal inhibitory concentration (IC50) in data set [2] and in data set [3] were 2.41 µM and 1.71 µM, respectively.

As to `COc1cc(OC)c2c(=O)cc(-c3ccc(OC)c(OC)c3)oc2c1` [57-TMF, 3′,4′,5,7-tetramethoxyflavone], the IC50 at CYP3A4 amounted to 3.56 ± 1.23 µM; against CYP1A2 it was 35.6 ± 12.3 µM; on CYP2C9, 62.5 ± 2.12 µM. In addition, the Papp at 4 h, 300 μg/mL in data set [1] was 14.3 ×10⁻⁶ cm/s. Also, the “Transport Efficiency (%)” value in the data set with Caco-2 cell monolayer (1 h) is 22.48 ± 3.90 ^c %; in the data set with Caco-2 cell monolayer (2 h), 33.03 ± 0.46 ^b %; in the data set on Caco-2 cell monolayer (4 h) it was 34.00 ± 0.01% and 34.00 ± 1.81 ^ab %.

As for `COc1ccc(-c2cc(=O)c3ccc(OC)c(OC)c3o2)cc1OC` [78-TMF, 3′,4′,7,8-tetramethoxyflavone], the IC50 was determined as 1.85 ± 0.14 µM against CYP2C19, 108 ± 6.31 µM against CYP3A4, 0.79 ± 0.12 µM on CYP1A2 and 1.49 ± 0.16 µM at CYP2C9. The compound further yielded an IC50 at 25 min in data set [4] of 0.79 to 1.85 µM. Besides, in [1], the apparent permeability (Papp) at 4 h, 300 μg/mL was 8.83 ×10⁻⁶ cm/s. Also, the “Transport Efficiency (%)” value with Caco-2 cell monolayer (1 h) is 30.49 ± 0.05 ^c** %; in the data set on Caco-2 cell monolayer (2 h), 33.98 ± 0.75 ^b %; in the data set on Caco-2 cell monolayer (4 h), 37.58 ± 0.11% and 37.58 ± 2.11 ^a %.
